Measured values as given in patent US20220064167A1, “IMIDAZO-PYRAZOLE CARBOXAMIDE DERIVATIVES AS ANTICANCER AGENTS AND THE SYNTHESIS THEREOF” (AVIDIN KFT., priority 2018, published 2022).

melting point	Compound
246 to 248 °C	CC(C)(C)Nc1c(-c2ccccc2)[nH]c2c(C(N)=O)cnn12 [Example 1, 3-(Tert-butylamino)-2-phenyl-1H-imidazo[1,2-b]pyrazole-7-carboxamide]
154 to 156 °C	CC(C)(C)CC(C)(C)Nc1c(-c2ccccc2)[nH]c2c(C(N)=O)cnn12 [Example 2, 2-Phenyl-3-((2,4,4-trimethylpentan-2-yl)amino)-1H-imidazo[1,2-b]pyrazole-7-carbox-amide]
209 to 210 °C	COC(=O)CNc1c(-c2ccccc2)[nH]c2c(C(N)=O)cnn12 [Example 3, Methyl 2-((7-carbamoyl-2-phenyl-1H-imidazo[1,2-b]pyrazol-3-yl)amino)acetate]
240 to 241 °C	NC(=O)c1cnn2c(NC3CCCCC3)c(-c3ccccc3)[nH]c12 [Example 4, 3-(Cyclohexylamino)-2-phenyl-1H-imidazo[1,2-b]pyrazole-7-carboxamide]
229 to 231 °C	COc1ccc(Nc2c(-c3ccccc3)[nH]c3c(C(N)=O)cnn23)cc1 [Example 5, 3-((4-Methoxyphenyl)amino)-2-phenyl-1H-imidazo[1,2-b]pyrazole-7-carboxamide]
226 to 227 °C	COC(=O)CNc1c(-c2c(OC)cc(OC)cc2OC)[nH]c2c(C(N)=O)cnn12 [Example 9, Methyl 2-((7-carbamoyl-2-(2,4,6-trimethoxyphenyl)-1H-imidazo[1,2-b]pyrazol-3-yl)amino)acetate]
256 to 258 °C	CC(C)(C)Nc1c(-c2ccc(F)c(F)c2)[nH]c2c(C(N)=O)cnn12 [Example 13, 3-(Tert-butylamino)-2-(3,4-difluorophenyl)-1H-imidazo[1,2-b]pyrazole-7-carboxamide]
226 to 228 °C	CC(C)(C)CC(C)(C)Nc1c(-c2cccnc2)[nH]c2c(C(N)=O)cnn12 [Example 14, 2-(Pyridin-3-yl)-3-((2,4,4-trimethylpentan-2-yl)amino)-1H-imidazo[1,2-b]pyrazole-7-carboxamide]
203 to 204 °C	CCCCCCCc1[nH]c2c(C(N)=O)cnn2c1NC(C)(C)C [Example 17, 3-(Tert-butylamino)-2-heptyl-1H-imidazo[1,2-b]pyrazole-7-carboxamide]
177 to 178 °C	CC(C)(C)CC(C)(C)Nc1c(C(C)(C)C)[nH]c2c(C(=O)NC(C)(C)C)cnn12 [Example 30, N,2-Di-tert-butyl-3-((2,4,4-trimethylpentan-2-yl)amino)-1H-imidazo[1,2-b]pyrazole-7-carboxamide]
182 to 183 °C	CC(C)(C)CC(C)(C)Nc1c(C(C)(C)C)[nH]c2c(C(=O)NC3CCCC3)cnn12 [Example 32, 2-(Tert-butyl)-N-cyclopentyl-3-((2,4,4-trimethylpentan-2-yl)amino)-1H-imidazo[1,2-b]pyrazole-7-carboxamide]
180 to 181 °C	Cc1cc(C)cc(NC(=O)c2cnn3c(NC(C)(C)CC(C)(C)C)c(C(C)(C)C)[nH]c23)c1 [Example 41, 2-(Tert-butyl)-N-(3,5-dimethylphenyl)-3-((2,4,4-trimethylpentan-2-yl)amino)-1H-imidazo[1,2-b]pyrazole-7-carboxamide]
155 to 156 °C	CC(C)c1ccc(NC(=O)c2cnn3c(NC(C)(C)CC(C)(C)C)c(C(C)(C)C)[nH]c23)cc1 [Example 42, 2-(Tert-butyl)-N-(4-isopropylphenyl)-3-((2,4,4-trimethylpentan-2-yl)amino)-1H-imidazo[1,2-b]pyrazole-7-carboxamide]
127 °C	COc1ccc(NC(=O)c2cnn3c(NC(C)(C)CC(C)(C)C)c(C(C)(C)C)[nH]c23)c(OC)c1 [Example 44, 2-(Tert-butyl)-N-(2,4-dimethoxyphenyl)-3-((2,4,4-trimethylpentan-2-yl)amino)-1H-imidazo[1,2-b]pyrazole-7-carboxamide]
